Laboratory results from PubChem BioAssay (NCI).
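Five compound concentrations were applied to cells in 96-well plates for 48 hours; endpoints were derived by simple linear interpolation of the resulting dose-response curve. TGI marks complete inhibition of growth.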 *1 amine or outer side, *2 acyl side, *3 side chain or, on linkers, in order; H or OH if unused. Where a SMILES comes first, the peptide text is derived from it. Bridges are numbered along the chain shown (N, C = ends). Roman numbers before positions name the chains, in order. [ ]: non-standard residue; d: D form. Actinocin(9to1) = Cc1c2oc3c(C)ccc(C(=O)[*:1])c3nc-2c(C(=O)[*:2])c(N)c1=O; NMeV = CN[CH](C(=O)O)C(C)C; Sar = CNCC(=O)O

Columns and labels:
Test in all cases: growth of human tumour cells (NCI), 48 h
KM12 colon = system: KM12 colon
LOX IMVI melanoma = system: LOX IMVI melanoma
M14 melanoma = system: M14 melanoma
MCF7 breast = system: MCF7 breast
MOLT-4 leukemia = system: MOLT-4 leukemia
NCI-H460 lung = system: NCI-H460 lung
OVCAR-5 ovarian = system: OVCAR-5 ovarian
RPMI-8226 leukemia = system: RPMI-8226 leukemia
SK-MEL-28 melanoma = system: SK-MEL-28 melanoma
SNB-75 CNS = system: SNB-75 CNS

| Compound | TGI (KM12 colon) [µM] | TGI (LOX IMVI melanoma) [µM] | TGI (M14 melanoma) [µM] | TGI (MCF7 breast) [µM] | TGI (MOLT-4 leukemia) [µM] | TGI (NCI-H460 lung) [µM] | TGI (OVCAR-5 ovarian) [µM] | TGI (RPMI-8226 leukemia) [µM] | TGI (SK-MEL-28 melanoma) [µM] | TGI (SNB-75 CNS) [µM] |
| --- | --- | --- | --- | --- | --- | --- | --- | --- | --- | --- |
| CCCCCCCCCCCCCCCCCCNc1ccn(C2OC(COP(=O)(O)OCC3OC(n4cc(C)c(=O)[nH]c4=O)CC3N=[N+]=[N-])C(O)C2O)c(=O)n1 (stereo not drawn) | 35 | 37.8 | 36.1 | > 100 | 44.4 | 36.6 | 34.2 | 32.7 | 36.8 | 58.5 |
| CN(C)CCNC(=O)c1cccc2nc3c(nc12)-c1ccccc1C3=O | 33.2 | 12.7 | 31.9 | 24.3 | 7.52 | 18.9 | 90.1 | 33.6 | 37.3 | 31 |
| CCc1ccc2[nH]c(O)c(-c3[nH]c4ccccc4c3N=O)c2c1 | 4.51 | 26.7 | 25.3 | 6.05 | > 100 | 21 | 58.2 | > 100 | 26.7 | 28.9 |
| Cc1sc(/N=C/c2c[nH]c3ccccc23)c(C#N)c1C | > 100 | > 100 | > 100 | > 100 | > 100 | > 100 | > 100 | > 100 | > 100 | > 100 |
| CCOC(=O)CNC(=O)C(C)NC(=O)C(NC(=O)CC(c1ncc[nH]1)c1ncc[nH]1)C(C)CC (stereo not drawn) | > 100 | > 100 | > 100 | > 100 | > 100 | > 100 | > 100 | > 100 | > 100 | > 100 |
| COC(OC)C1OC(CO)C(n2ccc(N)nc2=O)C1O (stereo not drawn) | > 100 | > 100 | > 100 | > 100 | > 100 | > 100 | > 100 | > 100 | > 100 | > 100 |
| O=C1C(Br)=CC2(C=C1Br)CCNC1=C2C(=O)c2cccnc2C1=O | 35.8 | 18.9 | 21.3 | 41.3 | 24.9 | 19.8 | 33.1 | 36.9 | 29.3 | 27.1 |
| O=C1/C(=C/c2ccccc2[N+](=O)[O-])N=C(c2ccccc2)N1C1Nc2cc3c(cc2S1)NC(N1C(=O)/C(=C/c2ccccc2[N+](=O)[O-])N=C1c1ccccc1)S3 (stereo not drawn) | > 100 | > 100 | > 100 | > 100 | > 100 | > 100 | > 100 | 49.7 | > 100 | > 100 |
| Cc1cn(CC2=NCC(C)(C)N2)c(=O)[nH]c1=O |  | > 100 | > 100 | > 100 | > 100 | > 100 | > 100 | > 100 | > 100 | > 100 |
| Cc1c2oc3c(C)ccc(C(=O)NC4C(=O)NC(C(C)O)C(=O)N5CCCC5C(=O)N(C)CC(=O)N(C)C(C(C)C)C(=O)OC4C)c3nc-2c(C(=O)NC2C(=O)NC(C(C)O)C(=O)N3CCCC3C(=O)N(C)CC(=O)N(C)C(C(C)C)C(=O)OC2C)c(N)c1=O (stereo not drawn) (I: TTP[Sar][NMeV] / II: TTP[Sar][NMeV]; ester I:1-I:C, II:1-II:C; linker I:N-II:N via Actinocin(9to1); configuration not given here) | > 30.1 | 0.984 | 3.77 | 1.06 | 0.598 | > 100 | 44.2 | 1.55 | 2.75 | 1.95 |
| CC[C@H](C)[C@H]1NC(=O)[C@@H](NC(=O)[C@@H](CC(C)C)N(C)CC2CCCN2C(=O)C(C)=O)[C@@H](C)OC(=O)[C@H](Cc2ccc(OC)cc2)N(C)C(=O)C2CCCN2C(=O)[C@H](CC(C)C)NC(=O)[C@@H](C)C(=O)[C@H](C(C)C)OC(=O)C[C@@H]1O (stereo partly drawn) | 0.0105 | 0.00861 | 0.00972 | 0.00747 | 0.00608 | 0.00812 | 0.014 | 0.00697 | 0.0303 | 0.0108 |
| COC(=O)/C=C/c1cc(O)c2c(c1)[C@H](C(=O)OC)[C@@H](c1ccc(O)c(O)c1)O2 | 14.5 | > 82.6 | > 45.2 | > 100 | > 45.7 | 24.5 | > 100 | > 41 | > 71 | 0.0711 |
| CC(C)(C)C1(COC(=O)c2ccc(N)cc2)COC1 | > 100 | > 100 | > 100 | > 100 | > 100 | > 100 | > 100 | > 100 | > 100 | > 100 |
| CNC(=O)c1cc(NC(=O)N(CCC#N)CCN(C(=O)N[C@@H](Cc2ccccc2)C(=O)N[C@@H](CC(C)C)C(=O)NC)c2ccccc2)ccc1OC | > 100 | > 100 | > 100 | > 100 | > 100 | 50.9 | > 100 | > 88.3 | > 61.9 | > 100 |
| O=C1C=C(Br)c2c(Br)sc(Br)c21 | 37.3 | 5.77 | 15 | 17.4 | 12.2 | > 61.8 | 41.3 | > 100 | > 56.2 | 39.7 |
| O=C1c2c(nc3ccccc3c2-c2ccccc2)CN1Nc1ccccn1 | > 100 | > 100 | > 100 | > 100 | > 100 | > 83.2 | > 100 | > 100 | > 100 | > 92.8 |
| O=[N+]([O-])c1ccc(N=Nc2c(O)c(S(=O)(=O)O)cc3cc(S(=O)(=O)O)ccc23)cc1 |  | > 100 | > 100 | > 100 | > 100 | > 100 | > 100 | > 100 | > 100 | > 100 |
| Nc1ccccc1N/C=C\C(=O)C(Cl)(Cl)Cl | 29.4 | 29.7 | 31.8 | 30.7 | > 100 | > 100 | 45.6 | 38 | 42.8 | 72.2 |
| C=CCSC1=N/C(=C\c2ccccc2)C(=O)N1CC=C | > 100 | > 81.3 | > 100 | > 100 | 19.1 | > 100 | > 100 | > 62.3 | > 100 | 89.2 |
| CSc1c(C#N)c(=O)[nH]c2n[nH]c(C)c12 | > 100 | > 100 | > 100 | > 100 | > 100 | > 100 | > 100 | > 100 | > 100 | > 100 |
| COc1cc(/C=C2\N=C(c3ccccc3)N(c3nc4c(OC)ccc(OC)c4s3)C2=O)cc(OC)c1OC | > 100 | > 100 | > 100 | > 100 | > 100 | > 100 | > 100 | > 100 | > 100 | > 100 |
| O=S1(=O)c2ccccc2C(=NO)c2ccccc21 | > 100 | > 100 | > 100 | > 100 | > 100 | > 100 | > 100 | > 100 | > 100 | > 100 |
| NC(=S)Nc1[nH]c(=S)nc2c1SC1=N/C(=C\c3ccco3)C(=O)N12 | > 100 | > 100 | > 100 | > 100 | > 100 | > 100 | > 100 | > 90.6 | > 100 | > 100 |
| Cc1[nH]c2ccccc2c1C=Nc1ccc(N=Cc2c(C)[nH]c3ccccc23)cc1 | 32.3 | 36.5 | > 100 | 30.1 | 43.1 | > 100 | > 100 | 45.3 | > 100 | > 100 |
| COc1ccc(-c2c(N)n(-c3cccc(C(=O)O)c3)c(=O)c3cc([N+](=O)[O-])ccc23)cc1 | > 100 | > 100 | > 100 | > 100 | > 100 | > 100 | > 100 | > 100 | > 100 | > 100 |
| CCOc1nc(-c2ccccc2)cc(-c2ccc(N3CCOCC3)cc2)c1C#N | > 100 | > 100 | > 100 | > 100 | > 100 | > 100 | > 100 | > 100 | > 100 | > 100 |
| O=C(OCc1ccccc1)C1(N2CN(C3(C(=O)OCc4ccccc4)CCCC3)CN(C3(C(=O)OCc4ccccc4)CCCC3)C2)CCCC1 | > 10 | > 10 | > 10 | > 10 | > 10 | > 10 | > 10 | > 10 | > 10 | > 10 |
| CN(NC(=O)CCCl)C1=NCCCCN1 | > 100 | > 100 | > 100 | > 100 | > 100 | > 100 | > 100 | > 100 | > 100 | > 100 |
